Values joined by “and” are separate entries in the source; they are usually repeats but may differ in a detail not shown here. Identical values can stand only once.
Experiments:
WT α-HL nanopore [1] = target: T1, WT α-HL nanopore (Staphylococcus aureus, UniProt P09616); assay type: binding
WT α-HL nanopore [2] = target: T1, WT α-HL nanopore; assay type: binding; remark: listed apart in the source

T1 sequence (P09616 27-319 limits assumed): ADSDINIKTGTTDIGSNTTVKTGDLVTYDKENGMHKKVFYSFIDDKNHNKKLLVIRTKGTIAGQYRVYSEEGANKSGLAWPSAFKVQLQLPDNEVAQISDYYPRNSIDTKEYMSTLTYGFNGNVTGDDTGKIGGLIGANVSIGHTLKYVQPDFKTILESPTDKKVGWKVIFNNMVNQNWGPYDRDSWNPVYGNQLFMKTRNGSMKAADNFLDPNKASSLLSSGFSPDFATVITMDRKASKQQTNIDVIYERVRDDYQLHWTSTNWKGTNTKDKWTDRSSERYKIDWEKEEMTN

Substance	Ip (mean blockage depth) (WT α-HL nanopore [1])	τoff (WT α-HL nanopore [1])	1/τoff (WT α-HL nanopore [2])	mean Fp (mean blockage depth) (WT α-HL nanopore [2])	mean τoff (dwell time constant) (WT α-HL nanopore [2])	mean value of % F (blockade level % Fb, center value±FWHM) (WT α-HL nanopore [2])	sensing / translocation through α-HL nanopore by DOP (in words) (WT α-HL nanopore [2])
Trimethyl-β-cyclodextrin [TriM-β-CD]	0.065±0.002	0.386 ± 0.392 s	2.515 ± 0.440 s⁻¹ and 2.437 ± 0.449 s⁻¹ and 2.953 ± 0.616 s⁻¹ and 3.640 ± 0.330 s⁻¹	0.078±0.010	0.347 ± 0.067 s	–	–
5′-GATAGTGAGCCAAATTTAAA-3′ [oligomeric ssDNA]	–	–	–	–	–	0.289±0.175	able to pass through the α-HL nanopore
